Experimental data from patent US20240059688A1, “CONOLIDINE ANALOGUES AS SELECTIVE ACKR3 MODULATORS FOR THE TREATMENT OF CANCER” (Luxembourg Institute of Health (LIH), priority 2020, published 2024).

Legend:
[1] = biological target: ACKR3 (Homo sapiens, UniProt P25106); test: ACKR3 β-arrestin recruitment assay (PathHunter, β-galactosidase complementation); assay type: cell-based; conditions: for EC50: stable human ACKR3-β-arrestin-2-CHO cells, mean ± SEM, at least two independent experiments in duplicate; for Emax: read-out: ACKR3 β-arrestin % CXCL12 Emax ± SEM
Description: (§1) Compounds were evaluated for agonist activity using a β-arrestin recruitment assay based on β-galactosidase complementation (PathHunter, DiscoverX). Stable human ACKR3-β-arrestin-2-CHO cells (DiscoverX) were plated into 96-well white-walled assay plates at 15,000 cells/well in Cell Plating Reagent 2 (DiscoveRx) and incubated at 37° C., 5% CO2 overnight. The next day, test compounds were prepared at 10× concentration in DPBS/1% DMSO and 10 μL was added to the cells. CXCL-12 was included as a positive agonist control. Following a 1.5 hr incubation at 37° C., 55 μL of detection reagent (prepared according to the manufacturer's specifications) was added to each well. The plate was incubated at room temperature for 1 hr, after which luminescence was measured at 1 sec/well using an EnSpire multimode plate reader (PerkinElmer). Relative luminescence units (RLU) were plotted against the log of compound concentration and data were fit to a three-parameter logistic curve to generate EC50 values (GraphPad Prism). EC50 and % Emax values are reported as means±SEM and are the result of at least two independent experiments performed in duplicate. The CXCR4 assay was run similarly except that human CXCR4-C2Cl2 cells (DiscoverX) were plated at 20,000 cells/well in Cell Plating Reagent 9. The next day, the media was removed and cells were incubated with Cell Plating Reagent 4 for 3 hrs, after which the assay was conducted as described above.

[2] = biological target: T1, human CXCR4 (Homo sapiens, UniProt P61073); test: CXCR4 β-arrestin recruitment assay (PathHunter); assay type: cell-based; conditions: human CXCR4-C2Cl2 cells, relative to CXCL-12
T1 construct: host or cells: C2C12
Description: as §1

Sequence of ACKR3 (P25106 whole entry): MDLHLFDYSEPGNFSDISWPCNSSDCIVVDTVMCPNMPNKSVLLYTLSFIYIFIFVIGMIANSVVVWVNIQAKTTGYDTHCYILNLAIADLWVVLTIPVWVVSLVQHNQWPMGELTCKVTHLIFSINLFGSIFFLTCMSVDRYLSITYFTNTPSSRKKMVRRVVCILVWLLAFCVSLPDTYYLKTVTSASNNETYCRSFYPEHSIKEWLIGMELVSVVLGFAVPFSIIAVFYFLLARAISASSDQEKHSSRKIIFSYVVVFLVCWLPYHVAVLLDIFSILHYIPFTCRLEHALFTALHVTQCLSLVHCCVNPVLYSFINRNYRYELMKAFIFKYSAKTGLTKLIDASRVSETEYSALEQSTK
T1 sequence (P61073 whole entry): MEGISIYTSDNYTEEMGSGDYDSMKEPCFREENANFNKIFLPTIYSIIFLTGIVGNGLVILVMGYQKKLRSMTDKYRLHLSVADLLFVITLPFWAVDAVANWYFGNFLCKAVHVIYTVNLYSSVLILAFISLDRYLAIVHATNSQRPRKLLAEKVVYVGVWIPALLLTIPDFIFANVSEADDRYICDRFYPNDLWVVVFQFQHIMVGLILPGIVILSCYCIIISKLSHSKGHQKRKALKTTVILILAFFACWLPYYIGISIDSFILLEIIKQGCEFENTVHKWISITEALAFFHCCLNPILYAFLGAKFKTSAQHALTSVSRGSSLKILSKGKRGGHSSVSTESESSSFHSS

EC50 [1]	CXCR4 β-arrestin % CXCL-12Emax (n = 2) [2]	Emax [1]	Compound
> 10 µM	3%	–	C/C=C1/CN(CCCCN)CC[C@H]1C(=O)c1cc2ccccc2[nH]1 [WW-58, (3E,4R)-(3-ethylidene-1-(4-aminobutyl)piperidin-4-yl)(1H-indol-2-yl)methanone]
> 10 µM	4%	–	C/C=C1/CN(CCCCCC(=O)OC)CC[C@H]1C(=O)c1cc2ccccc2[nH]1 [WW-71, Methyl 6-[(3E,4R)-3-ethylidene-4-(1H-indol-2-ylcarbonyl)piperidin-1-yl]hexanoate]
> 10 µM	10%	–	CCCCCN1CCN(Cc2cc3ccccc3[nH]2)CC1 [WW-21, 2-[(4-pentylpiperazin-1-yl)methyl]-1H-indole]
> 10 µM	4%	–	CCCCCN1CCN(C(=O)c2cc3ccccc3[nH]2)C(CC)C1 (centres unmarked) [WW-25, 2-[(2-ethyl-4-pentylpiperazin-1-yl)carbonyl]-1H-indole]
1.78 ± 0.16 µM	15%	152 ± 1%	C/C=C1/CN(CCCC(C)C)CC[C@H]1C(=O)c1cc2ccccc2[nH]1 [WW-63, [(3E,4R)-3-ethylidene-1-(4-methylpentyl)piperidin-4-yl](1H-indol-2-yl)methanone]
3.04 ± 0.32 µM	5%	137 ± 3%	C/C=C1/CN(CCCCCC)CC[C@H]1C(=O)c1cc2ccccc2[nH]1 [WW-62, [(3E,4R)-3-ethylidene-1-hexylpiperidin-4-yl](1H-indol-2-yl)methanone]
1.92 ± 0.056 µM	15%	145 ± 4%	CCCCCN1CC[C@H](NC(=O)c2cc3ccccc3[nH]2)C1 [WW-29, N-[(3S)-1-pentylpyrrolidin-3-yl]-1H-indole-2-carboxamide]
> 10 µM	11%	–	CCCCCN1CCN(C(=O)c2cc3ccccc3[nH]2)CC1 [WW-28, 2-[(4-pentylpiperazin-1-yl)carbonyl]-1H-indole]
> 10 µM	9%	–	C/C=C1/CN(CCCCCN)CC[C@H]1C(=O)c1cc2ccccc2[nH]1 [WW-59, (3E,4R)-(3-ethylidene-1-(5-aminopentyl)piperidin-4-yl)(1H-indol-2-yl)methanone]
5 ± 0.6 µM	10%	90 ± 1%	C/C=C1/CN(CCCCC)CC[C@H]1C(=O)c1cc2ccc(F)cc2[nH]1 [WW-55, [(3E,4R)-3-ethylidene-1-pentylpiperidin-4-yl](6-fluoro-1H-indol-2-yl)methanone]
> 10 µM	9%	–	CCCCCN1CCC(C(=O)c2cc3ccccc3[nH]2)CC1 [WW-19, 1H-indol-2-yl(1-pentylpiperidin-4-yl)methanone]
> 10 µM	7%	–	CCCCCN1CCCN(C(=O)c2cc3ccccc3[nH]2)CC1 [WW-30, 2-[(4-pentyl-1,4-diazepan-1-yl)carbonyl]-1H-indole]
6.45 ± 0.72 µM	5%	96 ± 4%	CCCCCN1CCC(C)(C(=O)c2cc3ccccc3[nH]2)CC1 [WW-57, 1H-Indole-2-yl(4-methyl-1-pentylpiperidin-4-yl)methanone]
1.96 ± 0.027 µM	15%	129 ± 4%	C/C=C1/CN(CCCCC)CC[C@H]1C(=O)c1cc2cc(Cl)ccc2[nH]1 [WW-54, (5-chloro-1H-indol-2-yl)[(3E,4R)-3-ethylidene-1-pentylpiperidin-4-yl]methanone]
> 10 µM	9%	–	CCCCCNC1CN(C(=O)c2cc3ccccc3[nH]2)C1 [WW-32, 1-(1H-indole-2-ylcarbonyl)-N-pentylazetidin-3-amine]
> 10 µM	4%	–	O=C(c1cc2ccccc2[nH]1)N1CCNCC12CC2 [WW-22, 2-(4,7-diazaspiro[2.5]oct-4-ylcarbonyl)-1H-indole]
> 10 µM	11%	–	C/C=C1/CN(CCOCCN)CC[C@H]1C(=O)c1cc2ccccc2[nH]1 [WW-60, (3E,4R)-(3-ethylidene-1-(2-ethoxy-(2-aminoethyl))piperidin-4-yl)(1H-indol-2-yl)methanone]
2.46 ± 0.27 µM	12%	135 ± 4%	C/C=C1/CN(CCCCCCC)CC[C@H]1C(=O)c1cc2ccccc2[nH]1 [WW-67, [(3E,4R)-3-ethylidene-1-heptylpiperidin-4-yl](1H-indol-2-yl)methanone]
3.04 ± 0.13 µM	11%	156 ± 11%	CCCCCN1CCN(C(=O)c2cc3ccccc3[nH]2)C2(CC2)C1 [WW-23, 2-[(7-pentyl-4,7-diazaspiro[2.5]oct-4-yl)carbonyl]-1H-indole]

The remaining lines, values behind:

Compound	EC50 [1]	CXCR4 β-arrestin % CXCL-12Emax (n = 2) [2]	Emax [1]
O=C(N[C@H]1CCN(c2nccn3cccc23)C1)c1cc2ccccc2[nH]1 [WW-33, N-[(3S)-1-pyrrolo[1,2-a]pyrazin-1-ylpyrrolidin-3-yl]-1H-indole-2-carboxamide]	0.377 ± 0.009 µM	6%	150 ± 3%
CCCCCN1CC[C@H](NC(=O)c2cc3ccc(-c4ccc(F)cc4)cc3[nH]2)C1 [WW-44, 6-(4-Fluorophenyl)-N-[(3S)-1-pentylpyrrolidin-3-yl]-1H-indole-2-carboxamide]	4.14 ± 0.11 µM	26%	110 ± 7%
CC(C)(C)OC(=O)N1CCCN(C(=O)c2cc3ccccc3[nH]2)CC1 [WW-27, tert-butyl 4-(1H-indol-2-ylcarbonyl)-1,4-diazepane-1-carboxylate]	> 10 µM	4%	–
CCCCCN1CC[C@H](NC(=O)c2cc3c(OC)c(OC)c(OC)cc3[nH]2)C1 [WW-47, 4,5,6-Trimethoxy-N-[(3S)-1-pentylpyrrolidin-3-yl]-1H-indole-2-carboxamide]	> 10 µM	18%	–
CCOC(=O)C(c1[nH]c2ccccc2c1C=O)C1CCN(S(=O)(=O)c2ccc(C)cc2)C/C1=N\O (centres unmarked) [WW-65, ethyl (3-formyl-1H-indol-2-yl){(3Z)-3-(hydroxyamino)-1-[(4-methylphenyl)sulfonyl]piperidin-4-yl}acetate]	> 10 µM	11%	–
C/C=C1/CN(Cc2ccc(OC)cc2)CC[C@H]1C(O)c1cc2cc(-c3ccc(F)cc3)ccc2n1S(=O)(=O)c1ccccc1 (some centres unmarked) [WW-69]	1.68 ± 0.3 µM	11%	79 ± 6%
C/C=C1/CN(CCCCC)CC[C@H]1C(=O)c1cc2cc(C(C)=O)ccc2n1CCCCC [WW-66, 1-(2-{[(3E,4R)-3-ethylidene-1-pentylpiperidin-4-yl]carbonyl}-1-pentyl-1H-indol-5-yl)ethanone]	> 10 µM	8%	–
CCCCCN1CC[C@H](NC(=O)c2cc3cccc(-c4ccc(F)cc4)c3[nH]2)C1 [WW-46, 7-(4-Fluorophenyl)-N-[(3S)-1-pentylpyrrolidin-3-yl]-1H-indole-2-carboxamide]	0.504 ± 0.062 µM	7%	119 ± 8%
C/C=C1/CN(CCCCC)CC[C@H]1C(=O)c1cc2cc(-c3ccc(F)cc3)ccc2[nH]1 [WW-73, [(3E,4R)-3-ethylidene-1-pentylpiperidin-4-yl][5-(4-fluorophenyl)-1H-indol-2-yl]methanone]	> 10 µM	9%	–
C/C=C1/CN(Cc2ccc(OC)cc2)CC[C@H]1C(O)c1cc2ccccc2n1S(=O)(=O)c1ccccc1 (stereo partly drawn) [WW-61, [(3E,4R)-3-ethylidene-1-(4-methoxybenzyl)piperidin-4-yl][1-(phenylsulfonyl)-1H-indol-2-yl]methanol]	0.527 ± 0.13 µM	10%	156 ± 7%
CCCCCN1CC[C@H](NC(=O)c2cc3cc(OC)c(OC)c(OC)c3[nH]2)C1 [WW-43, 5,6,7-Trimethoxy-N-[(3S)-1-pentylpyrrolidin-3-yl]-1H-indole-2-carboxamide]	> 10 µM	10%	–
CCCCCN1CCN(C(=O)c2cc3ccccc3n2CCCCC)C2(CC2)C1 [WW-24, 1-pentyl-2-[(7-pentyl-4,7-diazaspiro[2.5]oct-4-yl)carbonyl]-1H-indole]	6.05 ± 0.53 µM	5%	154 ± 17%
C/C=C1/CN(CC2CCCCC2)CC[C@H]1C(=O)c1cc2ccccc2[nH]1 [WW-68, [(3E,4R)-1-(cyclohexylmethyl)-3-ethylidenepiperidin-4-yl](1H-indol-2-yl)methanone]	3.61 ± 0.39 µM	8%	136 ± 3%
CCCCCN1CC[C@H](NC(=O)c2cc3ccc(-c4ccc(OC)cc4)cc3[nH]2)C1 [WW-45, 6-(4-methoxyphenyl)-N-[(3S)-1-pentylpyrrolidin-3-yl]-1H-indole-2-carboxamide]	> 10 µM	6%	–
CCOC(=O)C(c1[nH]c2ccccc2c1C=O)C1CCN(S(=O)(=O)c2ccc(C)cc2)C/C1=N\O[Si](C)(C)C(C)(C)C (centres unmarked) [WW-64]	> 10 µM	16%	–
